Reference: patent US11267815B2, “Class of amino-substituted nitrogen-containing fused ring compounds, preparation method therefor, and use thereof” (SHANGHAI RINGENE BIOPHARMA CO., LTD., priority 2017, dated 2022)
Read-outs that look alike come from different tables or passages of the source.

Key:
Hep3B cells = assay: Hep3B cell proliferation (CellTiter-Glo, 72 hours); assay type: cell-based; conditions: read-out: Hep3B IC50
Experimental: 1. Test method: inoculating Hep3B cells (ATCC) in logarithmic growth phase at an appropriate density in a 96-well culture plate, with 100 μL per well. After overnight culture, different concentrations of compounds were added to stay for 72 hours, and menstruum control group (negative control) was set, and the incubation was performed under the condition of 5% CO2 at 37° C. Adding 10 mM compound stock solution to the cells, after the cells were incubated with the compounds for 72 hours, the effects of the compounds on cell proliferation were determined by CellTiter-Glo (Promega) method. 30 μL CTG reagent was added to each well and the resulting mixtures were placed in a 37° C. incubator for 2-4 hours. Then the plate was read by a full-wavelength microplate enzyme reader Envision at a […].
The inhibition rates (%) of the compounds on tumor cell growth were calculated by the following formula: inhibition rate (%)=(OD negative control well−OD administration well)/OD negative control well×100%. IC50 values were obtained by four parameters regression using Graphpad Prism 5 software.

FGFR1 = FGFR1 (Homo sapiens (Human), UniProt P11362); assay: Inhibitory activity on kinase FGFR1 (Caliper mobility shift); assay type: biochemical; conditions: read-out: FGFR1 IC50
Experimental: (§1) (1). Preparation of 1×Kinase buffer; (2) Preparation of the gradient concentrations of the compounds: the concentration of the compounds to be tested started from 10 μM, which was 3-fold diluted to prepare 10 dilutions, and then tested in duplicated wells. The compounds were 100-fold serially diluted into 10 dilutions with different final concentrations in 96-well plates, each of which was further diluted with 1×Kinase buffer to prepare an intermediate dilution having a concentration of 5 times the final concentration; (3) adding 5 μL of each of the prepared compound solution into the compound wells of 384-well plates, and each concentration set single well; adding 5 μL of 5% DMSO into negative control wells and positive control wells respectively; (4) preparing a kinase solution having a concentration of 2.5 times the final concentration with 1×kinase buffer; (5) adding 10 μL of kinase solution at a concentration of 2.5 times the final concentration into the compound wells and the positive control wells respectively; and adding 10 μL of 1×Kinase buffer into the negative control wells; (6) centrifuging at 1000 rpm for 30 seconds, and incubating at room temperature for 10 minutes after shaking and mixing evenly; (7) preparing a mixed solution of ATP and Kinase substrate 22 having a concentration of 2.5 times the final concentration with 1×Kinase Buffer; (8) adding 10 μL of the mixed solution of ATP and substrate at a concentration of 2.5 times the final concentration to initiate the reaction; (9) Centrifuging the 384-well plates at 1000 rpm for 30 seconds, and incubating at 28° C. for corresponding time respectively after shaking and mixing; (10) adding 30 μL of stop detection solution to stop the kinase reaction, centrifuging at 1000 rpm for 30 seconds, and shaking and mixing the mixture evenly; (11) reading the conversion rate by Caliper Ezreader II. The dose-effect curve was fitted by the log (inhibitor) vs. response-variable slope of GraphPad Prism 5 with the log value of concentration as the X axis and the percentage inhibition rate as the Y axis, then the IC50 value of each compound on the enzyme activity was obtained.

FGFR4 = FGFR4 (Homo sapiens (Human), UniProt P22455); assay: Inhibitory activity on kinase FGFR4 (Caliper mobility shift); assay type: biochemical; conditions: read-out: FGFR4 IC50
Experimental: as §1

FGFR1, sequence (P11362 22-822): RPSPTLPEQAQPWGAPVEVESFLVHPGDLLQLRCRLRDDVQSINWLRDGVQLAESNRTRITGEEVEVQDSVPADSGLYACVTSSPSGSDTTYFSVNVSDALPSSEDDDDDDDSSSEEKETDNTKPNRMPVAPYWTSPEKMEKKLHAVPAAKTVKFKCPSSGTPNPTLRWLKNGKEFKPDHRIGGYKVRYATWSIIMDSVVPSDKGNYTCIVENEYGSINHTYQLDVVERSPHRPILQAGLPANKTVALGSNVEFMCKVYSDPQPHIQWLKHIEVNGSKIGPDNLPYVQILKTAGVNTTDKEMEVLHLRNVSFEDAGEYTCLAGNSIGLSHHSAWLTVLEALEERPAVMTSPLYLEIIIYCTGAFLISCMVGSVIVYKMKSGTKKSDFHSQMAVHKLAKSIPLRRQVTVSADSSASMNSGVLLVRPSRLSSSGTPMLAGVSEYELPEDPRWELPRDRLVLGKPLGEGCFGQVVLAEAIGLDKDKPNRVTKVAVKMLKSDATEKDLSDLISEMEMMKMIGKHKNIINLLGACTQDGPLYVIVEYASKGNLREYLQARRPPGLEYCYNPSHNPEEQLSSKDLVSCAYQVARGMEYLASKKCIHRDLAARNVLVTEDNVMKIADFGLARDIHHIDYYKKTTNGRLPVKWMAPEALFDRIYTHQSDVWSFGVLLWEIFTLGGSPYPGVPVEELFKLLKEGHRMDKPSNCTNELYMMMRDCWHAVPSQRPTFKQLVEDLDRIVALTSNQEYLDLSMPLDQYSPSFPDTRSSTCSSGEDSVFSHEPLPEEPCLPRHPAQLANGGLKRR
FGFR4, sequence (P22455 22-802): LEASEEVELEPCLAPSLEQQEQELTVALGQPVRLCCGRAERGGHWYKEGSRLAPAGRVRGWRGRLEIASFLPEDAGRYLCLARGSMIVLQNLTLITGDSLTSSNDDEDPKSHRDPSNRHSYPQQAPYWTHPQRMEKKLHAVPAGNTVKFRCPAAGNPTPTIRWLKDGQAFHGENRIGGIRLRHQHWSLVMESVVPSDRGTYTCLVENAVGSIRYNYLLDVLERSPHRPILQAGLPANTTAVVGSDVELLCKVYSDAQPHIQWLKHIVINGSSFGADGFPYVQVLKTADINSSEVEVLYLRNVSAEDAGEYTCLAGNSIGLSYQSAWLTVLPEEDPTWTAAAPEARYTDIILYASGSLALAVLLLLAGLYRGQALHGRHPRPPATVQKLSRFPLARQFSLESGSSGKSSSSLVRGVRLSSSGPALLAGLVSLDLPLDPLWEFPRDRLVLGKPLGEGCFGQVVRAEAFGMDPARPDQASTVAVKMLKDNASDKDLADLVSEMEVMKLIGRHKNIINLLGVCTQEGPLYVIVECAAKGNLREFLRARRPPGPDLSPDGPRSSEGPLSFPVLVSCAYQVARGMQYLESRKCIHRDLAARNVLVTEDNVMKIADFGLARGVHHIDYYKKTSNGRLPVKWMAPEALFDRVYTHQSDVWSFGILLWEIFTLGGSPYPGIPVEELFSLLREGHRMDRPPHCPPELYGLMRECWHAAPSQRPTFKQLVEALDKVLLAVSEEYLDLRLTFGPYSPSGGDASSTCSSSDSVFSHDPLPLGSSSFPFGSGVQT

| IC50 (Hep3B cells; Homo sapiens, Hep3B) | IC50 (FGFR1) | IC50 (FGFR4) | Structure (SMILES) | IC50 (Hep3B cells) |
| --- | --- | --- | --- | --- |
| 20 to 200 nM | < 20 nM | < 20 nM | C=CC(=O)N1CCN(CCCc2cn3c(n2)c(-c2c(Cl)c(OC)cc(OC)c2Cl)cc2cnc(NCC4CCOC4)nc23)CC1 (stereo not drawn) [Embodiment 11] |  |
| < 20 nM | < 20 nM | < 20 nM | C=CC(=O)N1CCN(CCCc2cn3c(n2)c(-c2c(Cl)c(OC)cc(OC)c2Cl)cc2cnc(NCCOC)nc23)CC1 [Embodiment 6, 1-(4-(3-(6-(2,6-dichloro-3,5-dimethoxyaniline)-2-((2-methoxyethyl)amino)imidazo[1′,2′:1,6]pyrido[2,3-d]pyrimidin-8-yl)propyl)piperazine-1-yl)prop-2-en-1-one] |  |
| 20 to 200 nM | < 20 nM | < 20 nM | C=CC(=O)N1CCN(CCCc2cn3c(n2)c(-c2c(Cl)c(OC)cc(OC)c2Cl)cc2cnc(NCCC#N)nc23)CC1 [Embodiment 13] |  |
| 20 to 200 nM | < 20 nM | > 200 nM | C=CC(=O)N1CCN(Cc2cn3c(n2)c(-c2c(Cl)c(OC)cc(OC)c2Cl)cc2cnc(NC)nc23)CC1 [Embodiment 16, 1-(4-((6-(2,6-dichloro-3,5-phenyldimethoxyphenyl)-2-(methylamine)imidazo[1′,2′:1,6]pyrido[2,3-d]pyrimidin-8-yl)methyl)piperazine-1-yl)acrylamide] |  |
| 20 to 200 nM | < 20 nM | < 20 nM | C=CC(=O)N1CCN(CCCc2cn3c(n2)c(-c2c(Cl)c(OC)cc(OC)c2Cl)cc2cnc(NCC(C)(C)O)nc23)CC1 [Embodiment 12] |  |

Second part, the compound before the results:

| Structure (SMILES) | IC50 (Hep3B cells; Homo sapiens, Hep3B) | IC50 (FGFR1) | IC50 (FGFR4) | IC50 (Hep3B cells) |
| --- | --- | --- | --- | --- |
| C=CC(=O)N1CCN(CCCc2cn3c(n2)c(-c2c(Cl)c(OC)cc(OC)c2Cl)cc2cnc(NCCN(C)C)nc23)CC1 [Embodiment 9] | 20 to 200 nM | < 20 nM | < 20 nM |  |
| C=CC(=O)N1CCN(CCCc2cn3c(n2)c(-c2c(Cl)c(OC)cc(OC)c2Cl)cc2cnc(NCC4CC4)nc23)CC1 [Embodiment 4] | < 20 nM | < 20 nM | < 20 nM |  |
| C=CC(=O)N1CCN(CCCc2cn3c(n2)c(-c2c(F)c(OC)cc(OC)c2F)cc2cnc(NC)nc23)CC1 [Embodiment 1] | < 20 nM | < 20 nM | < 20 nM |  |
| C=CC(=O)N1CCN(CC(C)(C)Cc2cn3c(n2)c(-c2c(Cl)c(OC)cc(OC)c2Cl)cc2cnc(NC)nc23)CC1 [Embodiment 15, 1-(4-(3-(6-(2,6-dichloro-3,5-dimethoxyaniline)-2-(methylamine)imidazo[1′,2′:1,6]pyrido[2,3-d]pyrimidin-8-yl)-2,2-dimethylpropyl)piperazine-1-yl)prop-2-en-1-one] | 20 to 200 nM | < 20 nM | 20 to 200 nM |  |
| C=CC(=O)N1CCN(c2cccc(-c3cn4c(n3)c(-c3c(Cl)c(OC)cc(OC)c3Cl)cc3cnc(NC)nc34)c2)CC1 [Embodiment 18, 1-(4-(3-(6-(2,6-dichloro-3,5-dimethoxyphenyl)-2-(methylamine)imidazo[1′,2′:1,6]pyrido[2,3-d]pyrimidin-8-yl)phenyl)piperazine-1-yl)acrylamide] |  | < 20 nM | > 200 nM | 20 to 200 nM |
| C=CC(=O)N1CCN(CCCc2cn3c(n2)c(-c2c(Cl)c(OC)cc(OC)c2Cl)cc2cnc(NC)cc23)CC1 [Embodiment 5] | < 20 nM | < 20 nM | < 20 nM |  |
| C=CC(=O)N1CCN(CCCc2cn3c(n2)c(-c2c(Cl)c(OC)cc(OC)c2Cl)cc2cnc(NCC(O)CO)nc23)CC1 (stereo not drawn) [Embodiment 10] | 20 to 200 nM | < 20 nM | < 20 nM |  |
| C=CC(=O)N1CCN(CCCc2cn3c(n2)c(-c2c(Cl)c(OC)cc(OC)c2Cl)cc2cnc(NCC)nc23)CC1 [Embodiment 8] | < 20 nM | < 20 nM | < 20 nM |  |
| C=CC(=O)N1CCN(CCCc2cn3c(n2)c(-c2c(F)c(OC)cc(OC)c2F)cc2cnc(NC)cc23)CC1 [Embodiment 2] | < 20 nM | < 20 nM | < 20 nM |  |
| C=CC(=O)N1CCN(CCCc2cn3c(n2)c(-c2c(Cl)c(OC)cc(OC)c2Cl)cc2cnc(NCCN4CCN(C)CC4)nc23)CC1 [Embodiment 7, 1-(4-(3-(6-(2,6-dichloro-3,5-dimethoxyaniline)-2-((2-(4-methylpiperazine-1-yl)ethylethyl)amino)imidazo[1′,2′:1,6]pyrido[2,3-d]pyrimidin-8-yl)propyl)piperazine-1-yl)prop-2-en-1-one] | 20 to 200 nM | < 20 nM | < 20 nM |  |
| C=CC(=O)NCc1cccc(-c2cn3c(n2)c(-c2c(Cl)c(OC)cc(OC)c2Cl)cc2cnc(NC)nc23)c1 [Embodiment 19, N-(3-(6-(2,6-dichloro-3,5-dimethoxyphenyl)-2-(methylamino)imidazo[1′,2′:1,6]pyrido[2,3-d]pyrimidin-8-yl)benzyl)acrylamide] | 20 to 200 nM | < 20 nM | > 200 nM |  |
| C=CC(=O)N1CCN(CCCc2cn3c(n2)c(-c2c(Cl)c(OC)cc(OC)c2Cl)cc2cnc(NC)nc23)CC1(C)C [Embodiment 14] | 20 to 200 nM | < 20 nM | 20 to 200 nM |  |
